Measurements: ChEMBL document CHEMBL3596105, “Phospholipid derivatives of cladribine and fludarabine: synthesis and biological properties” (Bioorg Med Chem, 2015)

Legend:
[1] = Antiproliferative activity against human MOLT3 cells assessed as cell growth inhibition after 48 hrs by MTT assay; format: functional, cell-based; settings: MOLT-3, 48 h
[2] = test system: K562; experiment: Antiproliferative activity against human K562 cells assessed as cell growth inhibition after 48 hrs by MTT assay; format: functional, cell-based; settings: K562, 48 h
[3] = test system: MCF7; experiment: Antiproliferative activity against human MCF7 cells assessed as cell growth inhibition after 48 hrs by MTT assay; format: functional, cell-based; settings: MCF7, 48 h
[4] = Antiproliferative activity against human KG1 cells assessed as cell growth inhibition after 48 hrs by MTT assay; format: functional, cell-based; settings: KG-1, 48 h
[5] = test system: ZR-75-1; experiment: Antiproliferative activity against human ZR-75-1 cells assessed as cell growth inhibition after 48 hrs by MTT assay; format: functional, cell-based; settings: ZR-75-1, 48 h
[6] = Antiproliferative activity against human RPMI8226 cells assessed as cell growth inhibition after 48 hrs by MTT assay; format: functional, cell-based; settings: RPMI-8226, 48 h
[7] = Antiproliferative activity against human SK-UT-1B cells assessed as cell growth inhibition after 48 hrs by MTT assay; format: functional, cell-based; settings: Skut1B
[8] = Antiproliferative activity against human SKHEP1 cells assessed as cell growth inhibition after 48 hrs by MTT assay; format: functional, cell-based; settings: SK-HEP1, 48 h
[9] = test system: Mus musculus; experiment: Cmin in ICR mouse assessed as F-ara-A concentration at 120.4 mg/kg, ig administered as single dose after 24 hrs by HPLC analysis; format: ADME, organism-based; settings: in vivo, po
[10] = test system: K562; experiment: Antiproliferative activity against human K562 cells assessed as cell growth inhibition after 72 hrs by MTT assay; format: functional, cell-based; settings: K562, 72 h
[11] = test system: Rattus norvegicus; experiment: Prodrug conversion in Wistar rat assessed as smooth increase in F-ara-A concentration in serum at 72 mg/kg, ig administered as single dose by HPLC analysis; format: ADME, organism-based; settings: in vivo, po
[12] = Antiproliferative activity against human KG1 cells assessed as cell growth inhibition after 72 hrs by MTT assay; format: functional, cell-based; settings: KG-1, 72 h
[13] = test system: Rattus norvegicus; experiment: Prodrug conversion in Wistar rat assessed as prolonged serum circulation of liberated F-ara-A at 72 mg/kg, ig administered as single dose by HPLC analysis; format: ADME, organism-based; settings: in vivo, po
[14] = test system: Raji; experiment: Antiproliferative activity against human Raji cells assessed as cell growth inhibition after 48 hrs by MTT assay; format: functional, cell-based
[15] = test system: Mus musculus; experiment: Apparent half-life in ICR mouse assessed as F-ara-A content at 120.4 mg/kg, ig administered as single dose by HPLC analysis; format: ADME, organism-based; settings: in vivo, po
[16] = test system: HL-60; experiment: Antiproliferative activity against human HL60 cells assessed as cell growth inhibition after 48 hrs by MTT assay; format: functional, cell-based; settings: HL-60, 48 h
[17] = test system: Mus musculus; experiment: Tmax in ICR mouse assessed as F-ara-A concentration at 120.4 mg/kg, ig administered as single dose by HPLC analysis; format: ADME, organism-based; settings: in vivo, po
[18] = Antiproliferative activity against human M-HeLa cells assessed as cell growth inhibition after 48 hrs by MTT assay; format: functional, cell-based
[19] = test system: Mus musculus; experiment: Cmax in ICR mouse assessed as F-ara-A concentration at 120.4 mg/kg, ig administered as single dose by HPLC analysis; format: ADME, organism-based; set-up: dose 120.4 mg/kg, route intragastric; settings: in vivo, po
[20] = test system: HL-60; experiment: Antiproliferative activity against human HL60 cells assessed as cell growth inhibition after 72 hrs by MTT assay; format: functional, cell-based; settings: HL-60, 72 h
[21] = test system: MCF7; experiment: Antiproliferative activity against human MCF7 cells assessed as cell growth inhibition after 72 hrs by MTT assay; format: functional, cell-based; settings: MCF7, 72 h
[22] = test system: Rattus norvegicus; experiment: Prodrug conversion in Wistar rat assessed as slow F-ara-A release into bloodstream at 72 mg/kg, ig administered as single dose by HPLC analysis; format: ADME, organism-based; settings: in vivo, po
[23] = test system: Rattus norvegicus; experiment: Prodrug conversion in Wistar rat assessed as prolonged serum circulation of liberated F-ara-A at 77 mg/kg, ig administered as single dose by HPLC analysis; format: ADME, organism-based; settings: in vivo, po
[24] = test system: Rattus norvegicus; experiment: Prodrug conversion in Wistar rat assessed as slow F-ara-A release into bloodstream at 77 mg/kg, ig administered as single dose by HPLC analysis; format: ADME, organism-based; settings: in vivo, po
[25] = test system: Rattus norvegicus; experiment: Prodrug conversion in Wistar rat assessed as smooth increase in F-ara-A concentration in serum at 77 mg/kg, ig administered as single dose by HPLC analysis; format: ADME, organism-based; settings: in vivo, po
[26] = Antiproliferative activity against human SK-UT-1B cells assessed as cell growth inhibition after 72 hrs by MTT assay; format: functional, cell-based; settings: Skut1B
[27] = Antiproliferative activity against human M-HeLa cells assessed as cell growth inhibition after 72 hrs by MTT assay; format: functional, cell-based
[28] = test system: ZR-75-1; experiment: Antiproliferative activity against human ZR-75-1 cells assessed as cell growth inhibition after 72 hrs by MTT assay; format: functional, cell-based; settings: ZR-75-1, 72 h
[29] = test system: Mus musculus; experiment: Cmin in ICR mouse assessed as F-ara-A concentration at 50 mg/kg, ig administered as single dose after 24 hrs by HPLC analysis; format: ADME, organism-based; settings: in vivo, po
[30] = test system: Mus musculus; experiment: Cmax in ICR mouse assessed as F-ara-A concentration at 50 mg/kg, ig administered as single dose by HPLC analysis; format: ADME, organism-based; set-up: dose 50 mg/kg, route intragastric; settings: in vivo, po
[31] = test system: Mus musculus; experiment: Tmax in ICR mouse assessed as F-ara-A concentration at 50 mg/kg, ig administered as single dose by HPLC analysis; format: ADME, organism-based; settings: in vivo, po
[32] = test system: Mus musculus; experiment: Apparent half-life in ICR mouse assessed as F-ara-A content at 50 mg/kg, ig administered as single dose by HPLC analysis; format: ADME, organism-based; settings: in vivo, po

CCCCCCCCCCCCCCCC(=O)OCC(COC(=O)CCCCCCCCCCCCCCC)OP(=O)(O)OC[C@H]1O[C@@H](n2cnc3c(N)nc(Cl)nc32)C[C@@H]1O
IC50 [1]: > 100 µM | IC50 [2]: > 100 µM | IC50 [3]: > 100 µM

CCCCCCCCCCCCCC(=O)OCC(COP(=O)(O)OC[C@H]1O[C@@H](n2cnc3c(N)nc(Cl)nc32)C[C@@H]1O)OC(=O)CCCCCCCCCCCCC (some centres not stated)
IC50 [4]: 17 µM | IC50 [1]: 8 µM | IC50 [5]: > 100 µM | IC50 [6]: > 100 µM | IC50 [7]: > 100 µM | IC50 [2]: 50 µM | IC50 [8]: > 100 µM | IC50 [3]: > 100 µM

CCCCCCCCCCCCCCCC(=O)OCC(COP(=O)(O)OC[C@H]1O[C@@H](n2cnc3c(N)nc(Cl)nc32)C[C@@H]1O)OC(=O)CCCCCCCCCCCCCCC (some centres not stated)
IC50 [1]: > 100 µM | IC50 [2]: > 100 µM | IC50 [3]: > 100 µM

CCCCCCCCCCCCCC(=O)OCC(COC(=O)CCCCCCCCCCCCC)OP(=O)(O)OC[C@H]1O[C@@H](n2cnc3c(N)nc(Cl)nc32)C[C@@H]1O
IC50 [1]: > 100 µM | IC50 [2]: > 100 µM | IC50 [3]: > 100 µM

CCCCCCCCCCCCCC(=O)OCC(COP(=O)([O-])OC[C@H]1O[C@@H](n2cnc3c(N)nc(F)nc32)[C@@H](O)[C@@H]1O)OC(=O)CCCCCCCCCCCCC.[Na+] (some centres not stated)
IC50 [4]: 55 µM | IC50 [1]: > 100 µM | IC50 [5]: > 100 µM | Cmin [9]: 199 ng/mL | IC50 [10]: > 100 µM | Drug metabolism [11]: metabolite_detected | IC50 [12]: 9 µM | Drug metabolism [13]: metabolite_detected | IC50 [14]: > 100 µM | t1/2(app) [15]: 14.2 h | IC50 [16]: 30 µM | Tmax [17]: 2.8 h | IC50 [7]: > 100 µM | IC50 [18]: > 100 µM | Cmax [19]: 1613 ng/mL | IC50 [2]: 45 µM | IC50 [20]: 16 µM | IC50 [21]: 18 µM | Drug metabolism [22]: metabolite_detected | IC50 [3]: 45 µM

CCCCCCCCCCCCCCCC(=O)OCC(COP(=O)([O-])OC[C@H]1O[C@@H](n2cnc3c(N)nc(F)nc32)[C@@H](O)[C@@H]1O)OC(=O)CCCCCCCCCCCCCCC.[Na+] (some centres not stated)
IC50 [4]: > 100 µM | IC50 [1]: > 100 µM | Drug metabolism [23]: metabolite_detected | IC50 [5]: > 100 µM | IC50 [12]: 75 µM | Drug metabolism [24]: metabolite_detected | IC50 [14]: > 100 µM | Drug metabolism [25]: metabolite_detected | IC50 [16]: > 100 µM | IC50 [7]: > 100 µM | IC50 [18]: > 100 µM | IC50 [2]: > 100 µM | IC50 [3]: > 100 µM

CCCCCCCCCCCCCC(=O)OCC(COC(=O)CCCCCCCCCCCCC)OP(=O)([O-])OC[C@H]1O[C@@H](n2cnc3c(N)nc(F)nc32)[C@@H](O)[C@@H]1O.[Na+]
IC50 [4]: > 100 µM | IC50 [1]: > 100 µM | IC50 [5]: > 100 µM | IC50 [10]: > 100 µM | Drug metabolism [11]: metabolite_detected | IC50 [12]: 35 µM | Drug metabolism [13]: metabolite_detected | IC50 [14]: > 100 µM | IC50 [26]: 55 µM | IC50 [27]: 45 µM | IC50 [16]: 80 µM | IC50 [7]: > 100 µM | IC50 [18]: > 100 µM | IC50 [28]: 75 µM | IC50 [2]: 75 µM | IC50 [20]: 65 µM | IC50 [21]: 45 µM | Drug metabolism [22]: metabolite_detected | IC50 [3]: > 100 µM

CCCCCCCCCCCCCCCC(=O)OCC(COC(=O)CCCCCCCCCCCCCCC)OP(=O)([O-])OC[C@H]1O[C@@H](n2cnc3c(N)nc(F)nc32)[C@@H](O)[C@@H]1O.[Na+]
IC50 [4]: > 100 µM | IC50 [1]: > 100 µM | Drug metabolism [23]: metabolite_detected | IC50 [5]: > 100 µM | Drug metabolism [24]: metabolite_detected | IC50 [14]: > 100 µM | Drug metabolism [25]: metabolite_detected | IC50 [16]: > 100 µM | IC50 [7]: > 100 µM | IC50 [18]: > 100 µM | IC50 [2]: > 100 µM | IC50 [3]: > 100 µM

Nc1nc(Cl)nc2c1ncn2[C@H]1C[C@H](O)[C@@H](CO)O1 [CLADRIBINE]
IC50 [4]: 0.2 µM | IC50 [1]: 2.3 µM | IC50 [5]: > 100 µM | IC50 [6]: 6 µM | IC50 [7]: 1 µM | IC50 [2]: 10 µM | IC50 [8]: 4 µM | IC50 [3]: 45 µM

Nc1nc(F)nc2c1ncn2[C@@H]1O[C@H](COP(=O)(O)O)[C@@H](O)[C@@H]1O [FLUDARABINE PHOSPHATE]
IC50 [4]: 0.15 µM | IC50 [1]: 0.95 µM | Cmin [29]: 13 ng/mL | IC50 [5]: 0.6 µM | Cmax [30]: 8989 ng/mL | Tmax [31]: 0.9 h | IC50 [14]: 0.4 µM | IC50 [16]: 0.09 µM | IC50 [7]: 6 µM | IC50 [18]: 2 µM | IC50 [2]: 0.4 µM | t1/2(app) [32]: 1.5 h | IC50 [3]: 0.13 µM
